Measured values reported in publication PMC9229564 (Viruses, 2022).
Entries after “also recorded” stand apart in the source; their conditions may differ. Read-outs that look alike come from different tables or passages of the source.

Columns and labels:
[1] = tested on: CHIKV; conditions: previous work; cited from earlier work
[2] = tested on: CHIKV; assay: CHIKV infection of HeLa cells, immunofluorescence high-content imaging; assay type: cell-based, Chikungunya virus (clone 181/25); conditions: for inhibition of CHIKV infection (nsP3 expression), screen: 20 µM, cutoff at least 50% inhibition with at least 75% cell viability; for EC50: HeLa cells, CHIKV infection, increasing concentration of inhibitor
[3] = biological target: T1, human SK2 (Homo sapiens, UniProt Q9NRA0); assay: SK2 inhibition (Ki); assay type: biochemical
T1 sequence (Q9NRA0 1-654): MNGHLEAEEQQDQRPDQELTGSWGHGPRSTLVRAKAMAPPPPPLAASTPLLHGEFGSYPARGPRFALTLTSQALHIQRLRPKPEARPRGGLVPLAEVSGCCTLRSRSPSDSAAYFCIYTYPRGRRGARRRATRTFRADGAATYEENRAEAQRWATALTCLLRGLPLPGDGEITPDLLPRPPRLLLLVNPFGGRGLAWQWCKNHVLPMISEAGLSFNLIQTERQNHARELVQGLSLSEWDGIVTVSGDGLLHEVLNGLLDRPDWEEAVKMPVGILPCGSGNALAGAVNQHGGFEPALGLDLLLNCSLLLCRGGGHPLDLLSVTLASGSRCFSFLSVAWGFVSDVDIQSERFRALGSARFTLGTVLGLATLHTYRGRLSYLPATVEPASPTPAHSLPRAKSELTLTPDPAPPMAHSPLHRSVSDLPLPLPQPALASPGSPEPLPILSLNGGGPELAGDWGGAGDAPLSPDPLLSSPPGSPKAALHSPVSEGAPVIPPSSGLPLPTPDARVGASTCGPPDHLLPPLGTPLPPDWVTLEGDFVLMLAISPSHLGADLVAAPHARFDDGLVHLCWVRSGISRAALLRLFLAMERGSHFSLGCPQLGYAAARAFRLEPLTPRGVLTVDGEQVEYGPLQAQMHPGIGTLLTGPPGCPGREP

[4] = biological target: human SK1 (Homo sapiens, UniProt Q9NYA1); assay: SK1 inhibition (Ki); assay type: biochemical
[5] = tested on: SK1 and SK2; parameters: method as in earlier work; conditions: yeast assay; more potent at SK1 than SK2; cited from earlier work
[6] = tested on: HeLa cells; assay: virus-free cell viability assay; assay type: cell-based
[7] = tested on: CHIKV; assay: qRT-PCR of viral nsP1 expression in CHIKV-infected HeLa cells; assay type: cell-based, Chikungunya virus (clone 181/25); conditions: 20 µM, 1 h pre-treatment, MOI 1, 24 h
[8] = tested on: CHIKV; assay: plaque assay of infectious virus release (supernatants on Vero E6 cells); assay type: cell-based, Chikungunya virus (clone 181/25); conditions: 25 µM, supernatant 24 h post-infection, plaques on Vero E6 over 72 h
[9] = 1 h pre-treatment, HeLa, MOI = 1, 24 h

Chain of human SK1 (Q9NYA1 whole entry): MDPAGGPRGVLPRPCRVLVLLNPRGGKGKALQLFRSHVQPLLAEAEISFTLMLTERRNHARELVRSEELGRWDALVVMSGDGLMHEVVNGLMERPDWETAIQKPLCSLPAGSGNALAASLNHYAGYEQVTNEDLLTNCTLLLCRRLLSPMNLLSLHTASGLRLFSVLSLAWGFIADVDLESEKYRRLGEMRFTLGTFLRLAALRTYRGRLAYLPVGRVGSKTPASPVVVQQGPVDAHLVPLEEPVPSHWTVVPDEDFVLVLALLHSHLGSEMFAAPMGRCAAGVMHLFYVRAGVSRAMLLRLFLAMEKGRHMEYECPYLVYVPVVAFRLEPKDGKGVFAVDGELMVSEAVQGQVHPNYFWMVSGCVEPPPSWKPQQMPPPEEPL

| SMILES | inhibition of CHIKV infection (nsP3 expression), screen [2, 9] | EC50 ([2]; Chikungunya virus, HeLa) | Ki ([3]; read-out: SK2 Ki) | Ki ([4]; read-out: SK1 Ki) | also measured |
| --- | --- | --- | --- | --- | --- |
| O=C(NCc1ccncc1)C12CC3CC(C1)CC(c1ccc(Cl)cc1)(C3)C2 [ABC294640] |  |  |  |  | timing of effective inhibition of CHIKV infection [1]: most effective at inhibiting CHIKV infection |
| N=C(N)N1CCC[C@H]1Cc1nc(-c2ccc(Oc3nc(Br)cs3)cc2)no1 [SLC4091425] | significantly inhibited CHIKV infection | 3350 nM | > 3000 nM | > 3000 nM |  |
| CCCCCOc1ccc2cc(-c3noc([C@@H]4[C@@H](O)CCN4C(=N)N)n3)ccc2c1 [SLC5111312] | significantly inhibited CHIKV infection | 11800 nM |  |  | Ki [3]: 330 ± 70 nM; potency at SK1 relative to SK2 [5]: 2 fold; Ki [4]: 360 ± 90 nM |
| CCCCCCCCCCCCc1ccc(CN(C)C2CCCC2O)cc1 (stereo not drawn) [SLL3041783] | significantly inhibited CHIKV infection | 3330 nM | > 3000 nM | 2400 ± 610 nM |  |
| CCCCCCCCCCCCc1ccc(CN2CCCC2CO)cc1 (stereo not drawn) [SLL3071511] | significantly inhibited CHIKV infection | 2900 nM | 660 ± 110 nM |  | viral glycoprotein (E2) expression ([2]; 1 h pre-treatment, HeLa, MOI = 1, 24 h, Supplementary Figure S3): decreased; EC50 [2]: 2910 nM; anti-CHIKV activity at higher MOI ([2]; HeLa, MOI = 10, 24 h): retained significant anti-CHIKV activity; timing of effective inhibition of CHIKV infection ([2]; treatment 1 h before, along with or 1 h after infection, MOI 1): highest inhibitory effect occurring when the compound is used prior to infection; also recorded: maximal inhibition occurring when SLL3071511 is added prior to infection; non-toxic concentration [6]: up to 50 µM; viral nsP1 expression [7]: significantly diminished; plaque counts (infectious virus release) [8]: significantly diminished |
